Entries after “also recorded” stand apart in the source; their conditions may differ.
Assays:
[1] = test system: VDR target genes IGFBP-3, TRPV6 and CYP24A1 in LNCaP cells; experiment: Semi-quantitative real time PCR, VDR target genes in LNCaP cells; type: cell-based, human
[2] = test system: HL-60 cells; experiment: HL60 differentiation assay; type: cell-based, human; conditions: 4 days, 1,25(OH)2D3 alone
[3] = test system: AR target genes UGT1A1 and PSA in LNCaP cells; experiment: Semi-quantitative real time PCR, AR target genes in LNCaP cells; type: cell-based, human; conditions: 18 h
[4] = target: T1, PPARγ–DRIP2 interaction (Homo sapiens, UniProt P37231); experiment: FP assay PPARγ–DRIP2; type: binding
T1 sequence (P37231 238-503 limits assumed): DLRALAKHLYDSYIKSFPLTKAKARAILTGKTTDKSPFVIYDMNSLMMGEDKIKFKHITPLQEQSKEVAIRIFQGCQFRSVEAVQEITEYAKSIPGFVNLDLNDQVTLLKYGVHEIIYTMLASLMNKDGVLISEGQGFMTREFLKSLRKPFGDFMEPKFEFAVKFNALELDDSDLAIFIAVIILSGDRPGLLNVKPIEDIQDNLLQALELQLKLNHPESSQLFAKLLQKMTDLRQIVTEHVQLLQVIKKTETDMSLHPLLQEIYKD

[5] = test system: TRβ; conditions: HTS campaign; ref AID:588547, pubchem; cited from earlier work
[6] = test system: PPARγ; conditions: HTS campaign; ref AID588537, pubchem; cited from earlier work
[7] = test system: HEK293T cells; experiment: Toxicity in HEK293T cells; conditions: at a concentration of 45.8 µM; AID:602204
[8] = target: TRβ–SRC2–2 interaction (Homo sapiens, UniProt P10828); experiment: FP assay TRβ–SRC2–2 inhibition; type: binding
Sequence of TRβ–SRC2–2 interaction (P10828 217-461 limits assumed): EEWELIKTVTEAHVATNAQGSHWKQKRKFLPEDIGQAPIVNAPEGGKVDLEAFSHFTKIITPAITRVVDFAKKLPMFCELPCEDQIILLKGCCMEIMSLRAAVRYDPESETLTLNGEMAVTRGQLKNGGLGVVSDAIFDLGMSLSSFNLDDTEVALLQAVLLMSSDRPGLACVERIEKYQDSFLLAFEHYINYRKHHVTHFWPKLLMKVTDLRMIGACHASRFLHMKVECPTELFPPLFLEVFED

[9] = target: interaction between VDR and SRC2–3 (Homo sapiens, UniProt P11473, DEL165-215); experiment: HTS FP assay, VDR–SRC2–3 inhibition; type: binding; conditions: HTS campaign; Texas Red-labeled SRC2–3
[10] = test system: retinoid X receptor; conditions: HTS campaign; ref AID:588546, pubchem; cited from earlier work
[11] = test system: PPARγ target gene ANGPTL4 in LNCaP cells; experiment: Semi-quantitative real time PCR, PPARγ target gene in LNCaP cells; type: cell-based, human; conditions: 18 h
[12] = test system: SRC2; experiment: Isothermal titration calorimetry GW0742–SRC2; type: binding
[13] = Cell viability; type: cell-based, human; conditions: human
[14] = test system: HEK 293T cells; experiment: Cell viability; type: cell-based, human; conditions: GW0742 18.7 µM; CellTiter-Glo
[15] = test system: HL-60 cells; experiment: HL-60 cell death in differentiation assay; type: cell-based, human; conditions: 4 days
[16] = target: PPARγ (Homo sapiens, UniProt P37231); experiment: One-hybrid luciferase transcription assay in HEK 293T cells; type: cell-based
[17] = target: VDR-SRC2–3 Alexa Fluor 647 interaction (Homo sapiens, UniProt P11473, DEL165-215); experiment: VDR–SRC2–3 FP assay in the presence of 1 mM or 100 mM 2-mercaptoethanol; type: binding; conditions: small molecules 50 µM; Alexa Fluor 647 SRC2–3
[18] = target: VDR–SRC2 interaction (Homo sapiens, UniProt P11473, DEL165-215); experiment: Western pull-down assay VDR-LBD and SRC2 bearing all three NIDs; type: binding
[19] = test system: estrogen receptor α; conditions: HTS campaign; ref AID:588513, pubchem; cited from earlier work
[20] = test system: glucocorticoid receptor; conditions: HTS campaign; ref AID:588533, pubchem; cited from earlier work
[21] = test system: ANGPTL4 in HT29 colon cancer cells; conditions: GW0742 1 µM; cited from earlier work
[22] = target: VDR (Homo sapiens, UniProt P11473); experiment: VDR ligand competition FP assay; type: binding; conditions: with respect to 100% free probe (55 mP) measured in the absence of VDR
[23] = test system: TR target gene BTG2 in LNCaP cells; experiment: Semi-quantitative real time PCR, TR target gene in LNCaP cells; type: cell-based, human; conditions: 18 h
[24] = GW0742 20 µM + 1,25(OH)2D3 10 nM, 18 h

SMILES: C=C1/C(=C\C=C2/CCC[C@]3(C)[C@@H]([C@H](C)CCCC(C)(C)O)CC[C@@H]23)C[C@@H](O)C[C@@H]1O [1,25(OH)2D3, 1,25-dihydroxyvitamin D3]
- CYP24A1 expression ([1]; 1,25(OH)2D3 10 nM, 6 hours and 18 hours): induction; also recorded: moderately upregulated
- IGFBP-3 expression ([1]; 1,25(OH)2D3 10 nM, 18 h): strongly induced
- TRPV6 expression ([1]; 1,25(OH)2D3 10 nM, 18 h): strongly induced
- HL-60 cell differentiation [2]: strong

SMILES: C[C@]12CCC(=O)C[C@@H]1CC[C@@H]1[C@@H]2CC[C@]2(C)[C@@H](O)CC[C@@H]12 [DHT, dihydrotestosterone]
- UGT1A1 expression ([3]; DHT 10 nM): upregulated

SMILES: Cc1cc(SCc2sc(-c3ccc(C(F)(F)F)c(F)c3)nc2C)ccc1OCC(=O)O [GW0742]
- EC50 [4]: 2.6 µM
- IC50 [4]: > 86 µM
- concentration with significant inhibition between PPARγ-LBD and DRIP2 ([4]; FP assay): > 86 µM
- antagonistic activity TRβ [5]: Antagonistic activity
- antagonistic activity PPARγ [6]: Antagonistic activity
- cell death [7]: 18%
- IC50 [8]: 59.9 ± 9.5 µM
- VDR–SRC2–3 inhibition (FP assay) IC50 [9]: inconclusive
- antagonistic activity RxR [10]: Antagonistic activity
- effect on rosiglitazone-induced ANGPTL4 expression ([11]; GW0742 20 µM + rosiglitazone 5 µM): unaffected; also recorded: inconclusive
- interaction between GW0742 and SRC2 (ITC) [12]: no specific interaction was observed
- viability at 16 h, 37.5 µM [13]: 93 ± 3%
- toxicity [14]: no toxicity was observed
- effect on DHT-induced PSA expression ([3]; GW0742 20 µM + DHT 10 nM): significant inhibitory effect
- effect on DHT-induced UGT1A1 expression ([3]; GW0742 20 µM + DHT 10 nM): significant inhibitory effect
- concentration with significant HL-60 cell death [15]: 150 µM
- concentration with significant PPARγ-mediated transcriptional inhibition [16]: > 20 µM
- inhibition of VDR–SRC2–3 interaction at 100 mM ME in comparison with 1 mM ME [17]: not influenced
- inhibition of the VDR–SRC2 interaction (pull-down) ([18]; in the presence of VDR ligand): blocked in a dose dependent manner
- concentration with significant inhibition of the VDR–SRC2 interaction ([18]; residual bands still detected): 80 to 120 µM
- antagonistic activity ERα [19]: Antagonistic activity
- effect on 1,25(OH)2D3-induced IGFBP-3 expression [1, 24]: selectively inhibited
- effect on 1,25(OH)2D3-induced TRPV6 expression [1, 24]: selectively inhibited
- effect on 1,25(OH)2D3-induced CYP24A1 expression ([1]; only at 6 hours and 50 µM GW0742 + 1,25(OH)2D3 10 nM): significant inhibition
- antagonistic activity GR [20]: Antagonistic activity
- ANGPTL4 activation [21]: activation
- extent of inhibition of VDR–ligand binding [22]: partial inhibition
- effect on T3-mediated down-regulation of BTG2 ([23]; GW0742 20 µM + T3 10 nM): reversed

SMILES: CN(CCOc1ccc(CC2SC(=O)NC2=O)cc1)c1ccccn1 (centres unmarked) [Rosiglitazone]
- ANGPTL4 expression ([11]; rosiglitazone 5 µM): induced

SMILES: N[C@@H](Cc1cc(I)c(Oc2ccc(O)c(I)c2)c(I)c1)C(=O)O [T3, triiodothyronine]
- BTG2 expression ([23]; T3 10 nM): down-regulated
